From the NIST ThermoML archive (doi:10.1021/acs.jced.5b00903)

Experiment: xn = mol fraction of the nth substance listed
Settings: surface light scattering

CCCCCCCO [heptan-1-ol] + CC(C)CC(C)(C)C
surface tension liquid-gas [mN/m]
Settings	x2 = 0	x2 = 0.1003	x2 = 0.2002	x2 = 0.3002	x2 = 0.3999	x2 = 0.5	x2 = 0.6	x2 = 0.6999	x2 = 0.7999	x2 = 0.8999
298.15 K	26.46	24.78	23.26	22.3	21.46	20.67	20.04	19.59	19.07	18.72
303.15 K	25.93	24.13	22.69	21.74	20.9	20.14	19.53	19.1	18.61	18.29
308.15 K	25.43	23.63	22.12	21.15	20.32	19.55	18.97	18.55	18.08	17.81
313.15 K	24.95	23.15	21.61	20.65	19.83	19.08	18.51	18.13	17.68	17.45
318.15 K	24.55	22.72	21.11	20.14	19.3	18.55	17.97	17.59	17.14	16.92
323.15 K	24.03	22.13	20.53	19.6	18.77	18	17.48	17.12	16.71	16.53

CC(C)CC(C)(C)C [2,2,4-trimethylpentane] + CCCCCCCO
x1 = 1
Settings	surface tension liquid-gas [mN/m]
298.15 K	18.3
303.15 K	17.9
308.15 K	17.43
313.15 K	17.09
318.15 K	16.56
323.15 K	16.2

CC(C)CC(C)(C)C [2,2,4-trimethylpentane] + CCCO
surface tension liquid-gas [mN/m]
Settings	x1 = 0.1	x1 = 0.2	x1 = 0.3	x1 = 0.4	x1 = 0.4999	x1 = 0.5996	x1 = 0.6998	x1 = 0.7995	x1 = 0.9	x1 = 1
298.15 K	22.09	21.18	20.58	20.05	19.57	19.22	18.96	18.69	18.51	18.3
303.15 K	21.65	20.73	20.12	19.6	19.12	18.77	18.53	18.26	18.09	17.9
308.15 K	21.23	20.28	19.66	19.12	18.64	18.29	18.05	17.78	17.62	17.43
313.15 K	20.77	19.81	19.19	18.66	18.19	17.85	17.63	17.39	17.25	17.09
318.15 K	20.31	19.31	18.67	18.13	17.65	17.31	17.09	16.85	16.72	16.56
323.15 K	19.84	18.82	18.18	17.64	17.17	16.84	16.65	16.43	16.33	16.2

CC(C)CC(C)(C)C [2,2,4-trimethylpentane] + CCCCCO
x1 = 1
Settings	surface tension liquid-gas [mN/m]
298.15 K	18.3
303.15 K	17.9
308.15 K	17.43
313.15 K	17.09
318.15 K	16.56
323.15 K	16.2

CCCCCCO [hexan-1-ol] + CC(C)CC(C)(C)C
surface tension liquid-gas [mN/m]
Settings	x2 = 0	x2 = 0.1001	x2 = 0.2	x2 = 0.3001	x2 = 0.4	x2 = 0.5	x2 = 0.6001	x2 = 0.7001	x2 = 0.7997	x2 = 0.8998
298.15 K	25.56	24.01	22.65	21.78	21.03	20.33	19.78	19.38	18.95	18.65
303.15 K	24.95	23.31	22.03	21.17	20.44	19.76	19.25	18.88	18.47	18.22
308.15 K	24.65	22.99	21.62	20.74	19.99	19.3	18.77	18.41	18	17.75
313.15 K	23.93	22.3	20.9	20.05	19.34	18.69	18.21	17.9	17.54	17.37
318.15 K	23.58	21.91	20.45	19.58	18.85	18.17	17.69	17.37	17.01	16.84
323.15 K	23.21	21.43	19.99	19.11	18.38	17.71	17.24	16.94	16.6	16.47

CC(C)CC(C)(C)C [2,2,4-trimethylpentane] + CCO
surface tension liquid-gas [mN/m]
Settings	x1 = 0.0429	x1 = 0.0916	x1 = 0.1474	x1 = 0.2119	x1 = 0.2874	x1 = 0.3769	x1 = 0.4848	x1 = 0.6173	x1 = 0.784	x1 = 1
288.15 K	22.27	21.88	21.47	21.11	20.74	20.4	20.03	19.75	19.5	19.14
298.15 K	21.38	20.96	20.54	20.17	19.8	19.46	19.09	18.83	18.62	18.3
308.15 K	20.54	20.11	19.66	19.28	18.9	18.55	18.17	17.92	17.73	17.43
318.15 K	19.77	19.31	18.85	18.45	18.05	17.7	17.31	17.05	16.86	16.56

CCCCCO [pentan-1-ol] + CC(C)CC(C)(C)C
surface tension liquid-gas [mN/m]
Settings	x2 = 0	x2 = 0.1004	x2 = 0.2003	x2 = 0.3	x2 = 0.4	x2 = 0.5	x2 = 0.5999	x2 = 0.6998	x2 = 0.7999	x2 = 0.8996
298.15 K	25.29	23.81	22.53	21.7	20.97	20.3	19.77	19.38	18.94	18.64
303.15 K	24.87	23.28	22.05	21.22	20.49	19.82	19.3	18.93	18.51	18.22
308.15 K	24.46	22.83	21.56	20.71	19.98	19.3	18.79	18.42	18.01	17.75
313.15 K	24.05	22.42	21.08	20.23	19.51	18.84	18.34	18	17.61	17.38
318.15 K	23.65	21.99	20.58	19.71	18.97	18.3	17.79	17.45	17.07	16.85
323.15 K	23.21	21.5	20.14	19.26	18.51	17.83	17.34	17.02	16.65	16.43
